“And” between values parts separate entries of the source, which are not always exact repeats. Equal values may be shown once. “Also recorded” adds a separate entry of the source.
Tests used:
[1] = tested on: KRAS G12C-mutant advanced NSCLC; test: NCT04956640 Phase 1b Cohort B4 (with pembrolizumab) clinical response (BOR, ORR, DCR, DOR, TTR, % change from baseline, treatment duration); assay type: in vivo, human; conditions: for Time to response (TTR) 2 to <4 months / Time to response (TTR) <2 months: Phase 1b Cohort B4 responders
Description: The term “BOR” as used herein refers to best overall response based on investigator assessments using RECIST criteria (version 1.1). The minimum duration for BOR of SD is at least 6 weeks after the date of first dose of study drug.
The term “DOR” as used herein refers to duration of response, wherein DOR in months is calculated as the event or censoring date minus the response start date plus 1 day divided by 30.4375.
The term “ORR” as used herein refers to objective response rate, wherein objective response rate is the proportion of patients with BOR of CR or PR. Objective response rate, unconfirmed, is the proportion of patients with BOR of CR, PR, or uPR.
The term “TTR” as used herein refers to time to response, wherein TTR in months is calculated as response start date minus first dose date plus 1 day divided by 30.4375.

H358 lung tumor cells = test: Anti-tumor growth activity in lung cancer H358 xenograft mouse model; assay type: in vivo
Description: H358 lung tumor cells (10×10^6) are implanted by subcutaneous injection in hind leg of nude female mice (Taconic Biosciences). A total of 4 mice in each group are used for the efficacy study. Treatment is initiated with oral administration (gavage) of the test compound or vehicle (20% Captisol®, 25 mM phosphate, pH 2.0 in 0.2 mL volume) once or twice daily for 28 days when the tumor size reaches approximately 300 mg. Tumor growth and body weight are monitored over time to evaluate efficacy and signs of toxicity.

HCC44 = HCC44 (lung) xenograft model; assay type: in vivo, mouse
Description: For xenograft models of H1373, HCC44, MiaPaca-2, SW1463, SW837, KYSE-410 and UM-UC-3, typically 5-10×10^6 cells in a 1:1 matrigel mix (0.2 mL total volume) are implanted by subcutaneous injection in hind leg of nude mice. […] Treatment is initiated with oral administration (gavage) of testing compound or vehicle (20% captisol, 25 mM phosphate, pH2.0) in 0.2 mL volume when tumor size reaches approximately 200-300 mg. Tumor growth and body weight are monitored over time to evaluate efficacy and signs of toxicity. For EL3187 PDX model, frozen vials containing tumor fragments are thawed at 37° C. in a water bath. The tumor fragments are transferred to 50 mL Falcon tube and the ice cold DMEM medium is slowly added into the tube to a total volume of 35 mL. Then the tumor fragments are centrifuged at 130×g for 2 minutes at 4° C. and supernatant is aspirated. This washing step is repeated twice and the tumor fragments are resuspended in 10 mL DMEM for implantation into athymic nude-Foxn1nu mice (Envigo RMS, Inc., Mount Comfort, Indiana). Once tumor volumes reach 800 to 1000 mm^3, animals are sacrificed and tumors are harvested using aseptic technique. Fresh tumors are cut into 10 to 15 mm^3 fragments and placed into cold Gibco hibernate medium. The tumor fragments are subcutaneously implanted into animals with a 10 g trochar needle. When tumor size reaches 200 to 300 mm^3, the animals are randomized for compound treatment.
Among models listed in Table 2, EL3187 is a patient-derived xenograft (PDX) model, and all other are tumor xenograft models.

[2] = Phase 1b Cohort B4, Total (N = 13)
[3] = Phase 1b Cohort B4, individual patients, starting dose 50 BID, prior KRAS G12Ci Y
[4] = Phase 1b Cohort B4, individual patients, starting dose 100 BID, no prior KRAS G12Ci, listed as compound of Formula I
[5] = Phase 1b Cohort B4, individual patients, starting dose 150 BID, no prior KRAS G12Ci, listed as compound of Formula I
[6] = Phase 1b Cohort B4, individual patients, starting dose 150 BID, prior KRAS G12Ci Y, listed as compound of Formula I
[7] = Phase 1b Cohort B4, starting dose 50 mg BID (N = 1)
[8] = Phase 1b Cohort B4, starting dose 100 mg BID (N = 6)
[9] = Phase 1b Cohort B4, starting dose 150 mg BID (N = 6)
[10] = starting dose 50 mg BID (N = 1)
[11] = starting dose 100 mg BID (N = 6)
[12] = starting dose 150 mg BID (N = 6)

Compound: C=CC(=O)N1CCN2C(=O)c3cc(F)c(-c4ccc(F)c5sc(N)c(C#N)c45)c(Cl)c3OCC[C@H]2C1 (single isomer, unassigned) [Formula I]
- Duration of response (DOR) <6 months ([1]; 50 mg BID): 0 (NE) n (%)
- Patients with best overall response of CR or PR ([1]; 50 mg BID (N = 1)): 0 (0.0) N′ (%)
- Duration of response (DOR) <6 months ([1]; 100 mg BID): 2 (100.0) n (%)
- Patients with best overall response of CR or PR ([1]; 100 mg BID (N = 6)): 2 (33.3) N′ (%)
- Duration of response (DOR) <6 months ([1]; 150 mg BID): 3 (100.0) n (%)
- Patients with best overall response of CR or PR ([1]; 150 mg BID (N = 6)): 3 (50.0) N′ (%)
- Best overall response (BOR): Complete Response (CR), % [1, 2]: (0.0) %
- Best overall response (BOR): Not Evaluable (NE), % [1, 2]: (0.0) %
- Best overall response (BOR): Partial Response (PR), % [1, 2]: (38.5) %
- Best overall response (BOR): Partial Response, pending confirmation and ongoing (uPR), % [1, 2]: (30.8) %
- Best overall response (BOR): Progressive Disease (PD), % [1, 2]: (7.7) %
- Best overall response (BOR): Stable Disease (SD), % [1, 2]: (23.1) %
- Disease control rate (CR + PR + IPR + SD), % [1, 2]: (92.3) %
- Objective response rate (CR + PR), % [1, 2]: (38.5) %
- Objective response rate, confirmed and unconfirmed (CR + PR + uPR), % [1, 2]: (69.2) %
- Patients with best overall response of CR or PR [1, 2]: 5 (38.5) N′ (%)
- Time to response (months), Interquartile range [1, 2]: 0.07 months
- Time to response (months), Median [1, 2]: 1.38 months
- % Change from Baseline in Sum of Diameters for all Target Lesions [1, 3]: 1.1%
- Time (months) of Progressive Disease [1, 3]: 1.1 months
- % Change from Baseline in Sum of Diameters for all Target Lesions [1, 4]: 0.0% and −40.9% and −45.1% and −59.4% and −82.8%
- Best Response [1, 4]: PR Pending; also recorded: PR Confirmed
- Time (months) of Partial Response - Confirmed [1, 4]: 1.3 months and 1.1 months
- Time (months) of Partial Response - Pending Confirmation and Ongoing [1, 4]: 1.3 months and 1.4 months
- % Change from Baseline in Sum of Diameters for all Target Lesions ([1]; Phase 1b Cohort B4, individual patients, starting dose 100 BID, prior KRAS G12Ci Y): 0.0%
- % Change from Baseline in Sum of Diameters for all Target Lesions [1, 5]: −29.5% and −38.2% and −49.2% and −57.7%
- Best Response [1, 5]: PR Pending; also recorded: PR Confirmed
- Time (months) of Partial Response - Confirmed [1, 5]: 1.4 months (2×) and 3.0 months
- Time (months) of Partial Response - Pending Confirmation and Ongoing ([1]; Phase 1b Cohort B4, individual patients, starting dose 150 BID, prior KRAS G12Ci Y): 1.1 months
- % Change from Baseline in Sum of Diameters for all Target Lesions [1, 6]: −32.1% and 7.3%
- Best Response [1, 6]: PR Confirmed
- Best overall response (BOR): Complete Response (CR), % [1, 7]: (0.0) %
- Best overall response (BOR): Not Evaluable (NE), % [1, 7]: (0.0) %
- Best overall response (BOR): Partial Response (PR), % [1, 7]: (0.0) %
- Best overall response (BOR): Partial Response, pending confirmation and ongoing (uPR), % [1, 7]: (0.0) %
- Best overall response (BOR): Progressive Disease (PD), % [1, 7]: (100.0) %
- Best overall response (BOR): Stable Disease (SD), % [1, 7]: (0.0) %
- Disease control rate (CR + PR + IPR + SD), % [1, 7]: (0.0) %
- Objective response rate (CR + PR), % [1, 7]: (0.0) %
- Objective response rate, confirmed and unconfirmed (CR + PR + uPR), % [1, 7]: (0.0) %
- Patients with best overall response of CR or PR [1, 7]: 0 (0.0) N′ (%)
- Best overall response (BOR): Complete Response (CR), % [1, 8]: (0.0) %
- Best overall response (BOR): Not Evaluable (NE), % [1, 8]: (0.0) %
- Best overall response (BOR): Partial Response (PR), % [1, 8]: (33.3) %
- Best overall response (BOR): Partial Response, pending confirmation and ongoing (uPR), % [1, 8]: (33.3) %
- Best overall response (BOR): Progressive Disease (PD), % [1, 8]: (0.0) %
- Best overall response (BOR): Stable Disease (SD), % [1, 8]: (33.3) %
- Disease control rate (CR + PR + IPR + SD), % [1, 8]: (100.0) %
- Objective response rate (CR + PR), % [1, 8]: (33.3) %
- Objective response rate, confirmed and unconfirmed (CR + PR + uPR), % [1, 8]: (66.7) %
- Patients with best overall response of CR or PR [1, 8]: 2 (33.3) N′ (%)
- Time to response (months), Interquartile range [1, 8]: 0.26 months
- Time to response (months), Median [1, 8]: 1.22 months
- Best overall response (BOR): Complete Response (CR), % [1, 9]: (0.0) %
- Best overall response (BOR): Not Evaluable (NE), % [1, 9]: 0.0%
- Best overall response (BOR): Partial Response (PR), % [1, 9]: (50.0) %
- Best overall response (BOR): Partial Response, pending confirmation and ongoing (uPR), % [1, 9]: (33.3) %
- Best overall response (BOR): Progressive Disease (PD), % [1, 9]: (0.0) %
- Best overall response (BOR): Stable Disease (SD), % [1, 9]: (16.7) %
- Disease control rate (CR + PR + IPR + SD), % [1, 9]: (100.0) %
- Objective response rate (CR + PR), % [1, 9]: (50.0) %
- Objective response rate, confirmed and unconfirmed (CR + PR + uPR), % [1, 9]: (83.3) %
- Patients with best overall response of CR or PR [1, 9]: 3 (50.0) N′ (%)
- Time to response (months), Interquartile range [1, 9]: 1.61 months
- Time to response (months), Median [1, 9]: 1.41 months
- Time to response (TTR) 2 to <4 months ([1]; Total (N = 13)): 1 (20.0) n (%)
- Time to response (TTR) <2 months ([1]; Total (N = 13)): 4 (80.0) n (%)
- Time to response (TTR) 2 to <4 months [1, 10]: 0 (NE) n (%)
- Time to response (TTR) <2 months [1, 10]: 0 (NE) n (%)
- Time to response (TTR) 2 to <4 months [1, 11]: 0 (0.0) n (%)
- Time to response (TTR) <2 months [1, 11]: 2 (100.0) n (%)
- Time to response (TTR) 2 to <4 months [1, 12]: 1 (33.3) n (%)
- Time to response (TTR) <2 months [1, 12]: 2 (66.7) n (%)
- Duration of response (DOR) <6 months ([1]; Total): 5 (100.0) n (%)
- Patients with best overall response of CR or PR ([1]; Total (N = 13)): 5 (38.5) N′ (%)
- median time to response ([1]; human, in vivo): 1.4 month
- % Regression (Day 12) (H358 lung tumor cells; 30 mg/kg PO, BID): −72.14%
- % Regression (Day 26) (H358 lung tumor cells; 30 mg/kg PO, BID): −67.68%
- % tumor regression (H358 lung tumor cells; 30 mg/kg twice daily): −67.68 to −72.14%
- animal body weight loss (H358 lung tumor cells; through the whole study): No significant animal body weight loss
- tumor growth inhibition (%) or regression (− %) (HCC44; 5 mg/kg BID x28): 57.5%
- tumor growth inhibition (%) or regression (− %) (HCC44; 5 mg/kg QD x28): 28.3%
- tumor growth inhibition (%) or regression (− %) (HCC44; 10 mg/kg BID x28): 61.8%
- tumor growth inhibition (%) or regression (− %) (HCC44; 10 mg/kg QD x28): 32.7%
- tumor growth inhibition (%) or regression (− %) (HCC44; 30 mg/kg BID x28): 84.1%
- tumor growth inhibition (%) or regression (− %) (HCC44; 30 mg/kg QD x28): 77%

Reference: patent US20240108618A1, “KRAS G12C INHIBITOR DOSING REGIMENS” (Eli Lilly and Company, priority 2022, published 2024)
